Measured values as given in patent US20120083471A1, “Novel Compounds, Pharmaceutical Compositions Containing Same, Methods of Use for Same, and Methods for Preparing Same” (priority 2008, published 2012).
Entries after “also recorded” stand apart in the source; their conditions may differ.

Assays:
[1] = biological target: T1, mtGPAT1 (Mus musculus, UniProt Q61586); test: In vitro mtGPAT inhibition: acylation of 14C-glycerol 3-phosphate with palmitoyl-CoA, scintillation counting; assay type: biochemical; details: Table 2, sulfonamides 15a-i and 17a-f; triplicate; read-out: IC50 (μM) ± SD, In Vitro Anti-mtGPAT1 Activity
T1 construct: from tissue; host or cells: mitochondrial preparation
T1 sequence (Q61586 1-827): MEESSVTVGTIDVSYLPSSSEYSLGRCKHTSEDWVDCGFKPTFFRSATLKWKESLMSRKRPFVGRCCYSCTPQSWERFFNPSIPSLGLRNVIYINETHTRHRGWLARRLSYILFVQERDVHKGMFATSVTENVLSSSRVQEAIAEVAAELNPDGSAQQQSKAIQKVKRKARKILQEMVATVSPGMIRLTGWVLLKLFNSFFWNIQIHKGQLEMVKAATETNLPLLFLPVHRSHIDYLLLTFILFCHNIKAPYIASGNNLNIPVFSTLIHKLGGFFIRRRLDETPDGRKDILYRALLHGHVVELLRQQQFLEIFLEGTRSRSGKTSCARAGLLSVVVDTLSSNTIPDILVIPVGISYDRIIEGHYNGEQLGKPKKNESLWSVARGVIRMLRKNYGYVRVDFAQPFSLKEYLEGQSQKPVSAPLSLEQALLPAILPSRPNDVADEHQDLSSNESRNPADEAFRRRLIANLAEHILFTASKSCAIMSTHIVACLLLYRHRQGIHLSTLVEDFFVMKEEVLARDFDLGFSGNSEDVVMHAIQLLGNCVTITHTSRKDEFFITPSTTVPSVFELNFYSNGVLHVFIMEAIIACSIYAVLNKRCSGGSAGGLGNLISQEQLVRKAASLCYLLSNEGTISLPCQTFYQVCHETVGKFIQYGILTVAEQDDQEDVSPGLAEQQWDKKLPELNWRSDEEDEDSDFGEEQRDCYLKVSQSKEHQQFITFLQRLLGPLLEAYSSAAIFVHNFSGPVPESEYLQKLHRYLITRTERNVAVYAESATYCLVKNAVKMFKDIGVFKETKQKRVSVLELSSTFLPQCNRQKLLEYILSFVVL
Protocol: The compounds produced as described above were evaluated for their ability to inhibit the acylation of glycerol-3-phosphate in vitro. The acylation reaction between ^14C-labelled glycerol-3-phosphate and palmitoyl-CoA, initiated by adding mtGPAT, was measured in the presence of varying concentrations of the inhibitor by scintillation counting as described in more detail below.
A mitochondrial preparation of glycerol 3-phosphate acyltransferase was added to the incubation mixture containing ^14C-labeled glycerol 3-phosphate, palmitoyl-CoA, and varying inhibitor concentrations to initiate the reaction. After ten min, the reaction was terminated by adding chloroform, methanol, and 1% perchloric acid. Five minutes later, more chloroform and perchloric acid were added, and the upper aqueous layer was removed. After washing three times with 1% perchloric acid, the organic layer was evaporated under nitrogen, and the amount of ^14C present was counted to determine the extent of reaction inhibition. Data points were recorded in triplicate, and IC50 values were calculated based on the amount of test inhibitor necessary to produce 50% of mtGPAT activity observed in the absence of inhibitor but in the presence of DMSO vehicle control.

[2] = test system: lean mice; test: Conditioned taste aversion, two-bottle choice; assay type: in vivo, mouse; details: 5 mg/kg or 20 mg/kg ip, listed as FSG67
Protocol: Conditioned taste aversion. Ten days before testing, eighteen male C57/BL6 mice were placed on a schedule of 2 h daytime access to water. On the test day, mice were divided into three groups and were given access to 0.15% sodium saccharin rather than water for 30 min. Immediately after saccharin access, mice were injected ip with RPMI vehicle or FSG67 (5 and 20 mg/kg body wt) and were allowed water access for the remaining 90 min. Twenty-four hours later, mice were given 2h access to a two-bottle choice test of 0.15% saccharin vs. water. Intakes of both solutions were recorded, and data were expressed as saccharin preference (100× saccharin intake/saccharin intake+water intake).
GPAT inhibition with FSG67 decreased body weight in DIO mice consuming a high fat diet. FSG67 treated DIO mice lost 4.3±0.5% (1.7±0.2 g) of body mass versus a 5.3±0.4% (2.1±0.2 g) loss for fasted mice (FIG. 11c). Compared to the vehicle control mice which lost 2.5±0.6% (1.0±0.2 g) the weight loss was significant in both the FSG67 treated (p=0.026, 2-tailed t-test) and fasted mice (p=0.002, 2-tailed t-test). […] Thus, the reduction in food intake from FSG67 was not due to sickness behavior (FIG. 11e).

[3] = test system: DIO mice; test: 5-day dose ranging study in DIO mice; assay type: in vivo, mouse; details: 5 days
Protocol: To determine the dose of FSG67 suitable for chronic treatment, we performed a 5-day dose ranging study in DIO mice, four per group, with daily intraperitoneal doses of 1, 2, and 5 mg/kg (FIG. 17). The 5 mg/kg dose led to significant weight loss of 3.9% compared to vehicle controls (p=0.008, 2-way ANOVA). This dose was chosen for the subsequent chronic treatment experiments.

[4] = test system: lipogenic gene expression; test: Real-time RT-PCR gene expression in liver and white adipose tissue of 16 d treated DIO mice; assay type: in vivo, mouse
Protocol: Real-time RT-PCR. Hypothalamus, liver, and WAT of DIO and lean mice were harvested and immediately frozen in liquid nitrogen. Total RNA was isolated and real-time quantitative RT-PCR was performed as previously described (13). Gene-specific primer pairs were designed using Primer3 software (http://www-genome.wi.mit.edu/cgi-bin/primer/primer3_www.cgi/). The sequences of the primer pairs are listed in Supplemental Data Table 1.
To further explore the mechanism responsible for the reduction in adipose tissue mass, we used real-time RT-PCR to measure the expression of the following key lipogenic genes in white adipose tissue from vehicle control, pair-fed, and FSG67 treated DIO mice from the second indirect calorimetry trial (see FIG. 12c): fatty acid synthase (FAS), responsible for the de novo reductive synthesis of fatty acid 13, acetyl-CoA carboxylase 1 (ACC1), the cytoplasmic isoform of ACC expressed in lipogenic organs that synthesizes malonyl-CoA used as a substrate of FAS for fatty acid synthesis 14, peroxisome proliferator-activated receptor gamma (PPARγ) a key transcription factor for adipogenesis 15, lipid partitioning 16, and postprandial lipid storage 17, and GPAT. […] (FIG. 19). Thus, pharmacological GPAT inhibition not only increases fatty acid oxidation and reduces food intake, but up-regulates UCP2 in liver and white adipose tissue while down-regulating lipogenic gene expression in white adipose tissue, all of which should favor a selective decrease in adiposity. […]

[5] = vs control and pair-fed, listed as FSG67

SMILES: CCCCCCCCCS(=O)(=O)Nc1ccccc1C(=O)O [Compound 15g, 2-(Nonylsulfonamido)benzoic acid]
- IC50 [1]: 8.1 µM
- conditioned taste aversion (saccharin intake) [2]: failed to produce a significant reduction in saccharin intake; also recorded: did not induce conditioned tasted aversion
- weight loss compared to vehicle controls ([3]; 5 mg/kg ip daily): 3.9%
- minimum dose that led to significant weight loss ([3]; daily ip, doses 1, 2, 5 mg/kg): 5 mg/kg
- GPAT expression in liver ([4]; listed as FSG67): unaffected
- L-CPT-1 expression in liver and WAT ([4]; listed as FSG67): unaffected; also recorded: not affected
- UCP2 expression in liver ([4]; vs control): increased
- ACC1 expression in white adipose tissue [4, 5]: substantial down-regulation; also recorded: down regulated
- FAS expression in white adipose tissue [4, 5]: substantial down-regulation; also recorded: down regulated
- GPAT expression in white adipose tissue [4, 5]: substantial down-regulation; also recorded: down regulated
- PPARγ expression in white adipose tissue [4, 5]: substantial down-regulation; also recorded: down regulated
- UCP2 expression in WAT ([4]; vs pair-fed): increased
- ACC1 expression in liver ([4]; vs pair-fed, listed as FSG67): significant reduction; also recorded: reduced
- FAS expression in liver ([4]; vs vehicle and pair-fed, listed as FSG67): significant reduction; also recorded: reduced
